Calls of active or inactive are those of the source. No cut-off for these calls is given here.
Assays:
[1] = system: MCF7; assay: Growth inhibition against human MCF7 cells assessed as lethal concentration incubated for 48 hrs by sulforhodamine B spectrophotometric assay; format: functional; settings: read-out: LC50 (the source's name)
[2] = system: OVCAR-3; assay: Growth inhibition against human OVCAR-3 cells assessed as lethal concentration incubated for 48 hrs by sulforhodamine B spectrophotometric assay; format: functional; settings: read-out: LC50 (the source's name)
[3] = system: SK-MEL-2; assay: Growth inhibition against human SK-MEL-2 cells assessed as total growth inhibitory concentration incubated for 48 hrs by sulforhodamine B spectrophotometric assay; format: functional
[4] = system: U-251; assay: Growth inhibition against human U-251 cells assessed as lethal concentration incubated for 48 hrs by sulforhodamine B spectrophotometric assay; format: functional; settings: read-out: LC50 (the source's name)
[5] = system: DU-145; assay: Growth inhibition against human DU-145 cells assessed as total growth inhibitory concentration incubated for 48 hrs by sulforhodamine B spectrophotometric assay; format: functional
[6] = system: NCI-H460; assay: Growth inhibition of human NCI-H460 cells incubated for 48 hrs by sulforhodamine B spectrophotometric assay; format: functional
[7] = system: UACC-257; assay: Growth inhibition against human UACC-257 cells assessed as lethal concentration incubated for 48 hrs by sulforhodamine B spectrophotometric assay; format: functional; settings: read-out: LC50 (the source's name)
[8] = system: OVCAR-8; assay: Growth inhibition against human OVCAR-8 cells assessed as lethal concentration incubated for 48 hrs by sulforhodamine B spectrophotometric assay; format: functional; settings: read-out: LC50 (the source's name)
[9] = system: HOP-92; assay: Growth inhibition against human HOP-92 cells assessed as lethal concentration incubated for 48 hrs by sulforhodamine B spectrophotometric assay; format: functional; settings: read-out: LC50 (the source's name)
[10] = Acute toxicity in C57BL/6 mouse assessed as ratio of neutrophil to lymphocyte count at 20 mg/kg,ip administration and observed after 22 days; format: organism-based; settings: in vivo, 528 h, time 22 day
[11] = system: BT-549; assay: Anticancer activity against human BT-549 cells assessed as cell growth at 10 uM incubated for 48 hrs by sulforhodamine B assay; format: functional; settings: read-out: Activity
[12] = system: SK-MEL-28; assay: Growth inhibition against human SK-MEL-28 cells assessed as total growth inhibitory concentration incubated for 48 hrs by sulforhodamine B spectrophotometric assay; format: functional
[13] = system: SNB-19; assay: Growth inhibition against human SNB-19 cells assessed as total growth inhibitory concentration incubated for 48 hrs by sulforhodamine B spectrophotometric assay; format: functional
[14] = system: UO-31; assay: Growth inhibition against human UO-31 cells assessed as lethal concentration incubated for 48 hrs by sulforhodamine B spectrophotometric assay; format: functional; settings: read-out: LC50 (the source's name)
[15] = system: MCF7; assay: Growth inhibition against human MCF7 cells assessed as total growth inhibitory concentration incubated for 48 hrs by sulforhodamine B spectrophotometric assay; format: functional
[16] = system: NCI-H322M; assay: Growth inhibition of human NCI-H322M cells incubated for 48 hrs by sulforhodamine B spectrophotometric assay; format: functional
[17] = system: CAKI-1; assay: Growth inhibition against human CAKI-1 cells assessed as total growth inhibitory concentration incubated for 48 hrs by sulforhodamine B spectrophotometric assay; format: functional
[18] = system: MDA-MB-231; assay: Induction of mitochondrial membrane potential loss in human MDA-MB-231 cells at 10 uM incubated for 24 hrs by JC-1 staining based flow cytometry analysis; format: functional
[19] = system: NCI-H322M; assay: Growth inhibition against human NCI-H322M cells assessed as lethal concentration incubated for 48 hrs by sulforhodamine B spectrophotometric assay; format: functional; settings: read-out: LC50 (the source's name)
[20] = system: HL-60; assay: Growth inhibition of human HL-60 cells incubated for 48 hrs by sulforhodamine B spectrophotometric assay; format: functional
[21] = system: OVCAR-3; assay: Growth inhibition of human OVCAR-3 cells incubated for 48 hrs by sulforhodamine B spectrophotometric assay; format: functional
[22] = system: KB 3-1; assay: Antiproliferative activity against human KB 3-1 cells assessed as decrease in cell growth at 500 nM incubated for 72 hrs by crystal violet staining based assay; format: functional
[23] = system: MDA-MB-231; assay: Induction of mitochondrial membrane potential loss in human MDA-MB-231 cells at 5 uM incubated for 24 hrs by JC-1 staining based flow cytometry analysis; format: functional
[24] = system: U-251; assay: Growth inhibition against human U-251 cells assessed as total growth inhibitory concentration incubated for 48 hrs by sulforhodamine B spectrophotometric assay; format: functional
[25] = system: DU-145; assay: Growth inhibition of human DU-145 cells incubated for 48 hrs by sulforhodamine B spectrophotometric assay; format: functional
[26] = system: SN12C; assay: Growth inhibition against human SN12C cells assessed as lethal concentration incubated for 48 hrs by sulforhodamine B spectrophotometric assay; format: functional; settings: read-out: LC50 (the source's name)
[27] = system: BT-549; assay: Growth inhibition of human BT-549 cells incubated for 48 hrs by sulforhodamine B spectrophotometric assay; format: functional
[28] = system: CCRF-CEM; assay: Growth inhibition of human CCRF-CEM cells incubated for 48 hrs by sulforhodamine B spectrophotometric assay; format: functional
[29] = system: SK-OV-3; assay: Growth inhibition against human SK-OV-3 cells assessed as lethal concentration incubated for 48 hrs by sulforhodamine B spectrophotometric assay; format: functional; settings: read-out: LC50 (the source's name)
[30] = Acute toxicity in C57BL/6 mouse assessed as change in white blood cells at 20 mg/kg,ip administration observed after 22 days; format: organism-based; settings: in vivo, 528 h, time 22 day
[31] = system: CCRF-CEM; assay: Induction of cell cycle arrest in human CCRF-CEM cells assessed as accumulation of cells at higher G2/M phase at 20.7 uM incubated for 24 hrs by propidium iodide staining based flow cytometry analysis (reference value: 10.09 +/- 0.14%); format: functional
[32] = system: OVCAR-4; assay: Growth inhibition of human OVCAR-4 cells incubated for 48 hrs by sulforhodamine B spectrophotometric assay; format: functional
[33] = system: COLO 205; assay: Growth inhibition of human COLO 205 cells incubated for 48 hrs by sulforhodamine B spectrophotometric assay; format: functional
[34] = system: NCI/ADR-RES; assay: Growth inhibition against human NCI-ADR-RES cells assessed as total growth inhibitory concentration incubated for 48 hrs by sulforhodamine B spectrophotometric assay; format: functional
[35] = system: BT-549; assay: Growth inhibition against human BT-549 cells assessed as lethal concentration incubated for 48 hrs by sulforhodamine B spectrophotometric assay; format: functional; settings: read-out: LC50 (the source's name)
[36] = system: HL-60; assay: Growth inhibition against human HL-60 cells assessed as lethal concentration incubated for 48 hrs by sulforhodamine B spectrophotometric assay; format: functional; settings: read-out: LC50 (the source's name)
[37] = system: NCI/ADR-RES; assay: Growth inhibition against human NCI/ADR-RES cells assessed as lethal concentration incubated for 48 hrs by sulforhodamine B spectrophotometric assay; format: functional; settings: read-out: LC50 (the source's name)
[38] = system: OVCAR-8; assay: Growth inhibition of human OVCAR-8 cells incubated for 48 hrs by sulforhodamine B spectrophotometric assay; format: functional
[39] = system: KB 3-1; assay: Induction of apoptosis in human KB 3-1 cells assessed as increase in […] protein expression at 0.5 to 5 uM incubated for 3 hrs by Western blotting assay; format: functional, cell-based; settings: dose 0.5-5 µM
[40] = system: UACC-62; assay: Growth inhibition against human UACC-62 cells assessed as total growth inhibitory concentration incubated for 48 hrs by sulforhodamine B spectrophotometric assay; format: functional
[41] = system: MDA-MB-231; assay: Induction of apoptosis in human MDA-MB-231 cells assessed as increase in caspase 3/7 activity at 5 uM incubated for 24 hrs by flow cytometry analysis; format: functional
[42] = system: MDA-MB-435; assay: Growth inhibition of human MDA-MB-435 cells incubated for 48 hrs by sulforhodamine B spectrophotometric assay; format: functional
[43] = system: RXF 393; assay: Growth inhibition against human RXF 393 cells assessed as total growth inhibitory concentration incubated for 48 hrs by sulforhodamine B spectrophotometric assay; format: functional
[44] = system: NCI-H226; assay: Growth inhibition against human NCI-H226 cells assessed as lethal concentration incubated for 48 hrs by sulforhodamine B spectrophotometric assay; format: functional; settings: read-out: LC50 (the source's name)

O=C1C2=C(C(=O)c3c(O)cccc31)C(c1ccco1)c1sc(=O)[nH]c1S2 (centres undefined)
CC50 [1]: 8.04 µM | CC50 [2]: > 100 µM | TGI [3]: 16.4 µM | CC50 [4]: 35.7 µM | TGI [5]: 3.01 µM | GI50 [6]: 1.54 µM | CC50 [7]: 6.75 µM | CC50 [8]: 36.2 µM | CC50 [9]: 32.5 µM | Ratio [10]: 0.465 | growth at 10 µM [11]: -96.8% | TGI [12]: 3.72 µM | TGI [13]: 7.33 µM | CC50 [14]: 36.7 µM | TGI [15]: 3.34 µM | GI50 [16]: 1.71 µM | TGI [17]: 13.9 µM | Activity [18]: 37.3% | CC50 [19]: 5.74 µM | GI50 [20]: 1.82 µM | GI50 [21]: 2.86 µM | Activity [22]: Active | Activity [23]: 15.7% | TGI [24]: 10.1 µM | GI50 [25]: 1.55 µM | CC50 [26]: 6.99 µM | GI50 [27]: 1.64 µM | GI50 [28]: 3.29 µM | CC50 [29]: 56.5 µM | Activity [30]: Non-Toxic | Activity [31]: 20.54% | GI50 [32]: 1.79 µM | GI50 [33]: 1.89 µM | TGI [34]: 12.3 µM | CC50 [35]: 6.22 µM | CC50 [36]: > 100 µM | CC50 [37]: > 100 µM | GI50 [38]: 2.46 µM | Activity [39]: inactive | TGI [40]: 3.43 µM | Activity [41]: 10.6% | GI50 [42]: 1.16 µM | TGI [43]: 5.57 µM | CC50 [44]: 27.3 µM

— ChEMBL document CHEMBL5360558, “Molecular design, synthesis and anticancer activity of new thiopyrano[2,3-d]thiazoles based on 5-hydroxy-1,4-naphthoquinone (juglone)” (Eur J Med Chem, 2023)
